{
  "source": "patent US7718641B2",
  "about": "“Pyrrolo [3,4-H] isoquinoline compounds and methods for modulating gated ion channels” (Aros Pharma ApS, priority 2005, dated 2010)",
  "biological_target": "T1, heteromeric hASIC1a+3 (Homo sapiens, UniProt P78348+Q9UHC3)",
  "T1 sequence (P78348 1-528)": "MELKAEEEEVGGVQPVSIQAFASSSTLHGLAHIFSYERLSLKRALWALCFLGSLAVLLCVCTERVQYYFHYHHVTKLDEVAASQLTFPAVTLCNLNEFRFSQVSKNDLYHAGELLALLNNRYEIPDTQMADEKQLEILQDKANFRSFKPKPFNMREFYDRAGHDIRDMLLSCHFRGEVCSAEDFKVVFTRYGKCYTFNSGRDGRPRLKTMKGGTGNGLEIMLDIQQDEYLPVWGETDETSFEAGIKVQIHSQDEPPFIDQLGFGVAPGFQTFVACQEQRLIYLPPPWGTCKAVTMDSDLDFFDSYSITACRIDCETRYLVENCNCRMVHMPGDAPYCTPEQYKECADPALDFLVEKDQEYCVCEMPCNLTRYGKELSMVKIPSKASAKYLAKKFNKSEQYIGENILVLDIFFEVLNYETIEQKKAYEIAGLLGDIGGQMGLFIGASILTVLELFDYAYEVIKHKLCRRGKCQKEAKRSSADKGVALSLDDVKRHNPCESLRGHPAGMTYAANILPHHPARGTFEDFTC",
  "T1 sequence (Q9UHC3 1-531)": "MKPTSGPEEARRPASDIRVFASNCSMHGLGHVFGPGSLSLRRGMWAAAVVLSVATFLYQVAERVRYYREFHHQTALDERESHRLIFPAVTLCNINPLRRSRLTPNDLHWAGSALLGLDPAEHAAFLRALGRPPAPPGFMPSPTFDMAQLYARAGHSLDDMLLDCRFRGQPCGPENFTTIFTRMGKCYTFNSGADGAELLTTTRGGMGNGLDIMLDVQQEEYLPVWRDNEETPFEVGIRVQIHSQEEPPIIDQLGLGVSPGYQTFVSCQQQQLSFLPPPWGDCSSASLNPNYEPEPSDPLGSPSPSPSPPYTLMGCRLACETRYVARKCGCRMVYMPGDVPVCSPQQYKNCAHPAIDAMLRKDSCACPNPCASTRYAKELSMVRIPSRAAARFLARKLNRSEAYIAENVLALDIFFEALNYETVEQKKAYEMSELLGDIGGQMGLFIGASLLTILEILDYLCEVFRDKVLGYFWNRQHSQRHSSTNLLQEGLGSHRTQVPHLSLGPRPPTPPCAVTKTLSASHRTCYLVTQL",
  "test": "Whole-cell patch clamp of HEK293 cells co-expressing hASIC1a and hASIC3",
  "assay_type": "cell-based",
  "parameters": "expressed in transfected cells; host or cells: HEK293",
  "settings": "10 μM, HEK293, -60 mV, pH 7.4 to pH 6.5 for 5 sec, n=3",
  "experimental": "HEK293 cells were transfected either with hASIC1a alone or co-transfected with hASIC1a and hASIC3. Acid-induced inward currents were recorded in the presence and absence of compound A (10 μM) using the whole-cell configuration of the patch-clamp method (voltage clamp mode).\nAll experiments are performed at room temperature (20-25° C.) in voltage clamp using conventional whole cell patch clamp methods (Neher, E., et al. (1978) Pfluegers Arch 375:219-228).\nCoverslips with the cells are transferred to a 15 μl experimental chamber mounted on the stage of an inverted microscope (IMT-2, Olympus) supplied with Nomarski optics. […] The cells are held at a holding voltage of −60 mV and at the start of each experiment the current is continuously measured for 45 s to ensure a stable baseline. […] Current amplitudes are measured at the peak of the responses, and effect of the compounds is calculated as the amplitude at compound equilibrium divided by the amplitude of the current evoked by the pulse just before the compound was included. […]\nFIGS. 4A and 4B show response to acidic saline in the absence or presence of 10 μM of Compound A recorded from HEK293 cells expressing either hASIC1a alone or HEK293 cells co-expressing hASIC1a and hASIC3 [voltage clamped at −60 mV, extracellular solution surrounding cells was changed rapidly from pH 7.4 to pH 6.5 for 5 sec] […]",
  "data": [
    {"smiles": "COc1ccc(F)cc1-c1cc2c(c3c1CCN(C)C3)NC(=O)/C2=N/O", "note": "[Compound A, 5-(5-fluoro-2-methoxyphenyl)-6,7,8,9-tetrahydro-3-(hydroxyimino)-8-methyl-1H-pyrrolo[3,2-h]isoquinoline-2(3H)-one]", "values": [
      {"measurement": "effect on acid-induced inward current, hASIC1a and hASIC3 co-expressed", "result": "effectively modulates the activity"}
    ]}
  ]
}
